Consider 30 compounds from patent US20230174484A1, “ANTAGONISTS OF GPR39 PROTEIN” (Oregon Health & Science University, priority 2020, published 2023).

Structures are written as SMILES. Where only a bound is given, the exact number is not on record here.

The target in the assay is T1, human GPR39 receptor (Homo sapiens, UniProt O43194).
T1 construct: PC3 Cells, Expressing the Endogenous Human GPR39 Receptor; endogenous in cells; host or cells: PC3 (human prostate adenocarcinoma) cells
T1 sequence (O43194 1-453): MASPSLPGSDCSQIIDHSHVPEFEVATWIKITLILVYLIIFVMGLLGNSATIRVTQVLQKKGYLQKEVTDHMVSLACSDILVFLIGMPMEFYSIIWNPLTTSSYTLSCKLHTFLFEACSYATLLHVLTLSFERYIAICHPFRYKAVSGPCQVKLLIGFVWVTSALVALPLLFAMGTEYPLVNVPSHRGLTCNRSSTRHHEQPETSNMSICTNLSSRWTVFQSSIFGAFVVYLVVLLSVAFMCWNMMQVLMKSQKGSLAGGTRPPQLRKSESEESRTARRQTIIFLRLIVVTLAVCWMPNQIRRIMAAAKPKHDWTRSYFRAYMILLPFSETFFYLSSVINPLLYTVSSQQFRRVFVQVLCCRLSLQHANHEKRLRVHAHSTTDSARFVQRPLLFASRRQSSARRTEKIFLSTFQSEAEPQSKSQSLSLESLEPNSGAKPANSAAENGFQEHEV
In words: Measurement of intracellular calcium response in PC3 cells (FLIPR), antagonism of the C3 agonist response. As to conditions: functional pKi (modified Cheng-Prusoff), inhibition of the C3 (TC-G 1008) response at EC90, 30 μM ZnCl2, read-out: fpKi activity. The assay is classed as cell-based. In short, it runs like this:
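Potency was reported as fpKi, converted by modified Cheng-Prusoff from four-parameter IC50 fits against an EC90 C3 agonist challenge. Calcium-6 FLIPR readings used PC3 cells naturally expressing human GPR39, in pH 7.4 HEPES buffer containing 30 μM final ZnCl2. Score bands: +/± <5.2, + 5.2–5.9, ++ 6.0–6.5, +++ 6.6–7.2, ++++ ≥7.3.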
A general note: Calcium assays in cells follow changes in intracellular calcium, usually with a dye or a luminescent sensor.
With `O=C(Nc1ccc(C(=O)N2CCC(F)(F)CC2)c(N2CCCC2)c1)C1CC1` [Example 59, N-[4-(4,4-difluoropiperidine-1-carbonyl)-3-pyrrolidin-1-ylphenyl]cyclopropanecarboxamide], the Ki lay in the range of 63.1 to 251 nM.
In the case of `O=C(Nc1ccc(C(=O)N2CCNCC2c2ccccc2F)c(N2CCCC2)c1)C1CC1` (racemic) [Example 157] it was 1260 to 6310 nM; in that of `CN1CCN(C(=O)c2ccc(NC(=O)C3CC3)cc2N2CCCC2)C(c2ccccc2Cl)C1` (single isomer, unassigned) [Example 170b, (2R or 2S) N-[4-[2-(2-chlorophenyl)-4-methylpiperazine-1-carbonyl]-3-pyrrolidin-1-ylphenyl]cyclopropanecarboxamide], 316 to 1000 nM.
The same measure for `O=C(Nc1ccc(C(=O)N2CCN(Cc3ncco3)CC2c2ccccc2)c(N2CCCCCC2)c1)C1CC1` (stereo not drawn) [Example 83, N-[3-(azepan-1-yl)-4-[4-(1,3-oxazol-2-ylmethyl)-2-phenylpiperazine-1-carbonyl]phenyl]cyclopropanecarboxamide]: 63.1 to 251 nM; for `CN1CCN(C(=O)c2ccc(NC(=O)C3CC3)nc2N2CCCC2)C(c2ccccc2)C1` (single isomer, unassigned) [Example 149a, (2R or 2S) N-[5-(4-methyl-2-phenylpiperazine-1-carbonyl)-6-pyrrolidin-1-ylpyridin-2-yl] cyclopropanecarboxamide]: 63.1 to 251 nM; for `CCCN1CCN(C(=O)c2ccc(NC(=O)C3CC3)cc2N2CCCCCC2)C(c2ccccc2)C1` (racemic) [Example 73c, N-[3-(azepan-1-yl)-4-(2-phenyl-4-propylpiperazine-1-carbonyl)phenyl]Cyclopropanecarboxamide]: at most 50.1 nM.
The same measure for `O=C(Nc1ccc(C(=O)N2CCC3(CC2)COC3)c(N2CCC(C(F)(F)F)C2)c1)C1CC1` (single isomer, unassigned) [Example 213a, N-[4-(2-oxa-7-azaspiro[3.5]nonane-7-carbonyl)-3-[3R or 3S-(trifluoromethyl)pyrrolidin-1yl]phenyl]cyclopropanecarboxamide]: at most 50.1 nM; for `CN1CCN(C(=O)c2ccc(NC(=O)C3CC3)cc2N2CCCCC2)C(c2ccccc2)C1` (racemic) [Example 201c, N-[4-(4-methyl-2-phenylpiperazine-1-carbonyl)-3-piperidin-1-ylphenyl]cyclopropanecarboxamide]: 63.1 to 251 nM.
Take `Cc1nnc(-c2ccc(C(=O)N3CCC(F)(F)CC3)c(-n3ccc(C(F)(F)F)n3)c2)[nH]1` [Example 208]: the Ki is at most 50.1 nM.
As for `CN1CCN(C(=O)c2ccc(NC(=O)C3CC3)cc2N2CCC3(CCC3)C2)C(c2ccccc2)C1` (single isomer, unassigned) [Example 66a, N-[3-(6-azaspiro[3.4]octan-6-yl)-4-(4-methyl-2-phenylpiperazine-1-carbonyl)phenyl]cyclopropanecarboxamide], the Ki was at most 50.1 nM.
Turning to `CN1CCN(C(=O)c2ccc(NC(=O)C3CC3)cc2N2CCC(F)(F)C2)C(c2ccccc2)C1` (racemic) [Example 202c, N-[3-(3,3-difluoropyrrolidin-1-yl)-4-(4-methyl-2-phenylpiperazine-1-carbonyl)phenyl]cyclopropanecarboxamide], the Ki was 63.1 to 251 nM.
The same measure for `CN1CCN(C(=O)c2ccc(NC(=O)C3CC3)cc2N2CCCCCC2)C(c2ccccn2)C1` (stereo not drawn) [Example 74, N-[3-(azepan-1-yl)-4-(4-methyl-2-pyridin-2-ylpiperazine-1-carbonyl)phenyl]cyclopropanecarboxamide]: 1260 to 6310 nM; for `CN1CCN(C(=O)c2ccc(NC(=O)C3CC3)nc2N2CCCC2)C(c2ccccc2)C1` (single isomer, unassigned) [Example 149b, (2R or 2S) N-[5-(4-methyl-2-phenylpiperazine-1-carbonyl)-6-pyrrolidin-1-ylpyridin-2-yl] cyclopropanecarboxamide]: 1260 to 6310 nM.
The same measure for `CCCN1CCN(C(=O)c2ccc(NC(=O)C3CC3)cc2N2CCC(C)C2)CC1` (single isomer, unassigned) [Example 13a, N-(3-[(3R or 3S] 3-methylpyrrolidin-1-yl]-4-(4-propylpiperazine-1-carbonyl)phenyl) cyclopropanecarboxamide]: 63.1 to 251 nM; for `CN1CCN(C(=O)c2ccc(NC(=O)C3CC3)nc2N2CCC(F)(F)C2)C(c2ccccc2)C1` (single isomer, unassigned) [Example 148a, (2R or 2S) N-[6-(3,3-difluoropyrrolidin-1-yl)-5-(4-methyl-2-phenylpiperazine-1-carbonyl)pyridin-2-yl]cyclopropanecarboxamide]: 63.1 to 251 nM; for `CC1CCN(c2cc(NC(=O)C3CC3)ccc2C(=O)N2CCN(C)CC2c2ccccc2)C1` (single isomer, unassigned) [Example 64c, (2S, 3R) or (2R, 3S) or (2R, 3R) or (2S, 3S) N-[4-(4-methyl-2-phenylpiperazine-1-carbonyl)-3-(3-methylpyrrolidin-1-yl)phenyl] cyclopropanecarboxamide]: at most 50.1 nM.
In the case of `CN1CCN(C(=O)c2ccc(NC(=O)C3CC3)cc2N2CCCC2)C(c2ccncc2Cl)C1` (racemic) [Example 174, N-[4-[2-(3-chloropyridin-4-yl)-4-methylpiperazine-1-carbonyl]-3-pyrrolidin-1-ylphenyl]cyclopropanecarboxamide] it was 63.1 to 251 nM; in that of `CCCN1CCN(C(=O)c2ccc(NC(=O)C3CC3)cc2-c2ccccn2)CC1` [Example 11, N-(4-(4-propylpiperazine-1-carbonyl)-3-(pyridin-2-yl)phenyl)cyclopropanecarboxamide], 316 to 1000 nM.
With `CN1CCN(C(=O)c2ccc(NC(=O)C3CC3)cc2N2CCCC2)C(c2cccc(Cl)c2)C1` (racemic) [Example 171c, N-[4-[2-(3-chlorophenyl)-4-methylpiperazine-1-carbonyl]-3-pyrrolidin-1-ylphenyl]cyclopropanecarboxamide], the Ki was at most 50.1 nM.
The same measure for `CC1CC(C)CN(c2cc(NC(=O)C3CC3)ccc2C(=O)N2CCN(C)CC2c2ccccc2)C1` (single isomer, unassigned) [Example 68b, Syn 2R or 2S N-[3-[3,5-dimethylpiperidin-1-yl]-4-(4-methyl-2-phenylpiperazine-1-carbonyl)phenyl] cyclopropanecarboxamide]: 316 to 1000 nM; for `O=C(Nc1ccc(C(=O)N2CCS(=O)(=O)CC2)c(N2CCOC(C(F)(F)F)C2)c1)C1CC1` (racemic) [Example 186, N-[4-(1,1-dioxo-1,4-thiazinane-4-carbonyl)-3-[2-(trifluoromethyl)morpholinyl]phenyl]cyclopropanecarboxamide]: 316 to 1000 nM.
The same measure for `CN1CCN(C(=O)c2ccc(NC(=O)C3CC3)nc2N2CCCCC2)C(c2ccccc2)C1` (racemic) [Example 147, N-[5-(4-methyl-2-phenylpiperazine-1-carbonyl)-6-piperidin-1-ylpyridin-2-yl]cyclopropanecarboxamide]: 63.1 to 251 nM; for `O=C(Nc1ccc(C(=O)N2CCN3CCCC3C2)c(N2CCCCCC2)c1)C1CC1` (stereo not drawn) [Example 40, N-[3-(azepan-1-yl)-4-{octahydropyrrolo[1,2-a]pyrazine-2-carbonyl}phenyl] Cyclopropanecarboxamide]: 316 to 1000 nM.
Take `CCCN1CCN(C(=O)c2ccc(NC(=O)C3CC3)cc2N2CCCCC2)CC1` [Example 19, N-(3-(piperidin-1-yl)-4-(4-propylpiperazine-1-carbonyl)phenyl)cyclopropanecarboxamide]: the Ki was in the range of 316 to 1000 nM.
Turning to `CCCN1CCN(C(=O)c2ccc(NC(=O)C3CC3)cc2N2CCCCCC2)C(c2ccccc2)C1` (single isomer, unassigned) [Example 73b, N-[3-(azepan-1-yl)-4-(2-phenyl-4-propylpiperazine-1-carbonyl)phenyl]Cyclopropanecarboxamide], the Ki was in the range of 1260 to 6310 nM.
In the case of `O=C(NCc1ccccc1)c1ccc(NC(=O)C2CC2)cc1N1CCCCCC1` [Example 43, 2-(azepan-1-yl)-N-benzyl-4-cyclopropaneamidobenzamide] it was 316 to 1000 nM; in that of `CCCN1CCN(C(=O)c2ccc(NC(N)=O)cc2N2CCCCCC2)CC1` [Example 96, [3-(azepan-1-yl)-4-(4-propylpiperazine-1-carbonyl)phenyl]urea], 1260 to 6310 nM.
As for `Cc1cc(C(F)(F)F)nn1-c1cc(NC(=O)C2CC2)ccc1C(=O)N1CCS(=O)(=O)CC1` [Example 178, N-[4-(1,1-dioxo-1,4-thiazinane-4-carbonyl)-3-[5-methyl-3-(trifluoromethyl)pyrazol-1-yl]phenyl]cyclopropanecarboxamide], the Ki is 63.1 to 251 nM.
The same measure for `O=C(Nc1ccc(C(=O)N2CCN(Cc3ccccc3)CC2)c(N2CCCCCC2)c1)C1CC1` [Example 50, N-(3-(azepan-1-yl)-4-(4-benzylpiperazine-1-carbonyl)phenyl)cyclopropanecarboxamide]: 63.1 to 251 nM; for `O=C(Nc1ccc(C(=O)N2CCC(C(F)(F)F)CC2)c(N2CCCC2)c1)C1CC1` [Example 61, N-[3-pyrrolidin-1-yl-4-[4-(trifluoromethyl)piperidine-1-carbonyl]phenyl]cyclopropanecarboxamide]: 63.1 to 251 nM.
